The test system of experiment [1] is blood nitric oxide concentration (NOx). The experiment can be described thus: Effect on increase in blood nitric oxide level (LPS-treated mice). Format: in vivo, BALB/c mice. Conditions: Mus musculus; 30 mg/kg orally 1 hour before LPS 10 mg/kg i.p.; serum nitrite+nitrate 6 hours after LPS; vs control group; read-out: Inhibition % of NO in blood.
The subject of a further experiment is serum TNF-α. The experiment can be described thus: Effect on increase in blood cytokine level (LPS-treated mice): TNF-α. The format is in vivo, BALB/c mice. The note with it: Mus musculus; 30 mg/kg orally 1 hour before LPS 10 mg/kg i.p.; serum 1 hour after LPS; vs control group. Here is the method:
(§1) As a result of a defense mechanism against an infection or an immune abnormality, various in vivo cytokines are produced. Accordingly, an experimental animal model was used to examine the effect of a test compound on the increase in the blood cytokine level.
(§2) Female BALB/c mice (6 weeks old) were purchased and acclimatized for 1 week and assigned to the groups in each of which 6 to 8 animals were included. In a treatment group, 30 mg/kg of a test compound suspended in a 0.5% aqueous solution of methyl cellulose was given orally. In a control group, the vehicle was given similarly. After 1 hour, LPS (10 mg/kg) was given intraperitoneally to each animal in the treatment and control groups, and the blood was taken 1 hour after the LPS administration and examined for the serum concentrations of TNF-α. IL-1α, IL-1β and IL-6 concentrations were determined using the serum from the blood taken 6 hours after the LPS administration. Each cytokine was determined using an assay kit manufactured by Amersham.

Experiment [2] concerns IL-1α production, RAW264.7. The experiment in a line: Cytokine production-inhibiting effect in RAW264.7: IL-1α. Conditions: Mus musculus, LPS 1.0 μg/ml in the absence of interferon gamma. Format: cell-based. Here is the method: Using mouse macrophage cell line RAW264.7, a test compound was examined for its % inhibition of a cytokine production. The test compound was dissolved at 10 mM in N,N-dimethylformamide and dilutedwith an RPMI-1640 medium at the concentration of 0.1 mM. The concentration was further adjusted using the medium so that a final concentration ranging from 10 μM to 10 nM could be obtained by a 10-fold serial dilution and the test compound was added to a culture medium. On the day before the experiment, the cell was adjusted at 5×10^5/ml in an RPMI-1640 medium supplemented with 10% inactivated fetal calf serum and inoculated to a 96-well microplate at 1×10^5 cells/0.2 ml per well. After incubating at 37° C. under an atmosphere of 5% CO2/95% air overnight, the test compound adjusted as described above was added and then LPS and interferon-gamma were added at the final concentrations of 5 ng/ml and 1 U/ml, respectively. After further incubating overnight, culture supernatants were examined for the concentrations of TNF-α and IL-6. IL-1α was determined using 1.0 μg/ml of LPS in the absence of interferon gamma under otherwise similar conditions. Each cytokine was determined using an assay kit manufactured by Amersham. An IC50 represents the concentration of the test compound which inhibits 50% of the cytokine production.

For the next experiment, the system named is serum IL-1β. The experiment in a line: Effect on increase in blood cytokine level (LPS-treated mice): IL-1β. The format is in vivo, BALB/c mice. The note with it: Mus musculus; 30 mg/kg orally 1 hour before LPS 10 mg/kg i.p.; serum 6 hours after LPS; vs control group. Here is the method: as §1, §2
Experiment [3] deals with NO production by RAW264.7 cell. The experiment can be described thus: NO production-inhibiting effect in RAW264.7 cells (nitrite ion by DAN fluorescence). Conditions: Mus musculus, RAW264.7, RAW264.7; LPS 5 ng/ml + interferon gamma 1 U/ml; nitrite ion in culture supernatant after overnight incubation. The format is cell-based, mouse. Here is the method: Mouse macrophage cell line RAW264.7 was used as an iNOS-inducible cell and a test compound was examined for its % inhibition of NO production. The test compound was dissolved at 10 mM in N,N-dimethylformamide and diluted with an RPMI-1640 medium at the concentration of 0.1 mM. The concentration was further adjusted using the medium so that a final concentration ranging from 10 μM to 10 nM could be obtained by a 10-fold serial dilution and the test compound was added to a culture medium. On the day before the experiment, the cell was adjusted at 5×10^5/ml in an RPMI-1640 medium supplemented with 10% inactivated fetal calf serum and inoculated to a 96-well microplate at 1×10^5 cells/0.2 ml per well. After incubating at 37° C. under an atmosphere of 5% CO2/95% air overnight, the test compound adjusted as described above was added and then LPS and interferon gamma were added at the final concentrations of 5 ng/ml and 1 U/ml, respectively. After further incubating overnight, culture supernatants were examined for the concentration of nitrite ion (stable metabolite of NO) which was used as an index for the NO production. The nitrite ion concentration was determined by adding 25 μl of 20 μg/ml of 2,3-diaminonaphthalene (DAN) to 50 μl of the culture supernatant, followed by incubating at room temperature for 10 minutes, followed by adding 25 μl of 0.5 N NaOH, followed by determining a fluorescence at 450 nm (excitation wavelength: 365 nm). An IC50 represents the concentration of the test compound which inhibits 50% of the NO production.

The subject of the next experiment is serum IL-1α. The experiment can be described thus: Effect on increase in blood cytokine level (LPS-treated mice): IL-1α. The format is in vivo, BALB/c mice. Conditions: Mus musculus; 30 mg/kg orally 1 hour before LPS 10 mg/kg i.p.; serum 6 hours after LPS; vs control group. Here is the method: as §1, §2
The test system of a further experiment is serum IL-6. The experiment in a line: Effect on increase in blood cytokine level (LPS-treated mice): IL-6. Format: in vivo, BALB/c mice. Conditions: Mus musculus; 30 mg/kg orally 1 hour before LPS 10 mg/kg i.p.; serum 6 hours after LPS; vs control group. As for the experimental part: as §1, §2

Regarding `CCOC(=O)C1=CCCCC1S(=O)(=O)Nc1ccc(Cl)cc1F` (stereo not shown) [Compound 1, ethyl 6-[N-(4-chloro-2-fluorophenyl)sulfamoyl]-1-cyclohexene-1-carboxylate], the inhibition at 30 mg/kg in experiment [1] is 76%; with serum TNF-α it was 98%; with serum IL-1β, 73%; in the experiment with serum IL-1α, 97%; in the experiment with serum IL-6, 89%. Besides, the half-maximal inhibitory concentration (IC50) in experiment [2] was 0.39 µM; in experiment [3], 0.12 to 0.32 µM.

One may read the inhibition as the drop in the measured response relative to a control, in per cent. As a reminder, the IC50 is the concentration at which inhibition is half-maximal.
